Structures can show the parent of a compound that is named as a salt.
Experiments:
[1] = molecular target: CDK7/cyclin H/MAT1 complex (Homo sapiens (Human), UniProt P50613); assay: In vitro enzymatic inhibitory activity test, CDK7; assay type: biochemical; details: Caliper mobility shift, 180 min at 27° C.
Method: (§1) CDK7/CyclinH was diluted in a test buffer solution (20 mM MES PH6.75, 0.01% Tween20, 50 ug/mL BSA, 6 mM MgCl2) to obtain a corresponding enzyme solution with a 2.4× concentration. CDK2/CyclinE1 was diluted in a test buffer solution (20 mM MES PH6.75, 0.01% Tween20, 50 ug/mL BSA, 6 mM MgCl2) to obtain a corresponding enzyme solution with a 2.4× concentration. CDK9/CyclinT1 was diluted in a test buffer solution (20 mM MES PH6.75, 0.01% Tween20, 50 ug/mL BSA, 10 mM MgCl2) to obtain a corresponding enzyme solution with a 2.4× concentration. CDK12/CyclinK was diluted in a test buffer solution (80 mM MES PH6.5, 0.01% Tween20, 50 ug/mL BSA, 10 mM MgCl2) to obtain a corresponding enzyme solution with a 2.4× concentration. The compounds were dissolved in dimethyl sulfoxide (DMSO) at a concentration of 10 mM. […] 2 ul of a test compound solution was mixed with 5 ul of enzyme solution. After incubating for 10 min, 5 ul of the mixed solution of the polypeptide substrate and ATP was added. After incubating at 27° C. for 180 min, 4 uL of EDTA with a 120 mM concentration was added to each sample to stop the reaction. […] A CDK9/cyclin TI complex (8 nM) and a “5-FAM-CDK9tide” peptide substrate (2 μM, synthetic fluorophore labeled peptide having the following sequence: 5-FAM-GSRTPMY-NH2, where 5-FAM was as defined above, and NH2 represented C-terminal amide) were used for testing the CDK9 inhibition. […] A CDK2/cyclin E1 complex (0.5 nM) and the “5-FAM-CDK7tide” (2 μM) as defined above were used for testing the CDK2 inhibition.
(§2) Electrophoretic separation was performed on Caliper EZ Reader II by means of a fluorogenic substrate and a phosphorylated product to analyze the reaction mixture. Data were calculated by using GraphPad Prism version 6.0. IC50 values were adjusted by means of a nonlinear regression model using a dose-response curve.

CDK2/cyclin E1 complex = CDK2/cyclin E1 complex (Homo sapiens (Human), UniProt P24941); assay: In vitro enzymatic inhibitory activity test, CDK2; assay type: biochemical; details: Caliper mobility shift, 180 min at 27° C.
Method: CDK7/CyclinH was diluted in a test buffer solution (20 mM MES PH6.75, 0.01% Tween20, 50 ug/mL BSA, 6 mM MgCl2) to obtain a corresponding enzyme solution with a 2.4× concentration. CDK2/CyclinE1 was diluted in a test buffer solution (20 mM MES PH6.75, 0.01% Tween20, 50 ug/mL BSA, 6 mM MgCl2) to obtain a corresponding enzyme solution with a 2.4× concentration. CDK9/CyclinT1 was diluted in a test buffer solution (20 mM MES PH6.75, 0.01% Tween20, 50 ug/mL BSA, 10 mM MgCl2) to obtain a corresponding enzyme solution with a 2.4× concentration. CDK12/CyclinK was diluted in a test buffer solution (80 mM MES PH6.5, 0.01% Tween20, 50 ug/mL BSA, 10 mM MgCl2) to obtain a corresponding enzyme solution with a 2.4× concentration. […] 2 ul of a test compound solution was mixed with 5 ul of enzyme solution. After incubating for 10 min, 5 ul of the mixed solution of the polypeptide substrate and ATP was added. After incubating at 27° C. for 180 min, 4 uL of EDTA with a 120 mM concentration was added to each sample to stop the reaction. […] A CDK9/cyclin TI complex (8 nM) and a “5-FAM-CDK9tide” peptide substrate (2 μM, synthetic fluorophore labeled peptide having the following sequence: 5-FAM-GSRTPMY-NH2, where 5-FAM was as defined above, and NH2 represented C-terminal amide) were used for testing the CDK9 inhibition. […] A CDK2/cyclin E1 complex (0.5 nM) and the “5-FAM-CDK7tide” (2 μM) as defined above were used for testing the CDK2 inhibition.
as §2

CDK9/CyclinT1 = CDK9/CyclinT1 (Homo sapiens (Human), UniProt P50750); assay: In vitro enzymatic inhibitory activity test, CDK9; assay type: biochemical; details: Caliper mobility shift, 180 min at 27° C.
CDK9/CyclinT1, sequence (P50750 whole entry, species assumed): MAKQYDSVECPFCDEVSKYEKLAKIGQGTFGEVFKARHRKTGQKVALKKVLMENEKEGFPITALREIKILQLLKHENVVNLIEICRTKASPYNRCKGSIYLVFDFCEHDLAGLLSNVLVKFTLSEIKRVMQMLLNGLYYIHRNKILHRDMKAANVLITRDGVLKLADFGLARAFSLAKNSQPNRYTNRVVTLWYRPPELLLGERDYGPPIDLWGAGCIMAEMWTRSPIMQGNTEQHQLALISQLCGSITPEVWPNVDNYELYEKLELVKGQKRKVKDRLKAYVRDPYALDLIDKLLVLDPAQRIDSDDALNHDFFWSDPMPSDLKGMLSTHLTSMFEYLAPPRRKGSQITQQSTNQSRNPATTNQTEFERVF
CDK9/CyclinT1, sequence (O60563 whole entry partner, species assumed): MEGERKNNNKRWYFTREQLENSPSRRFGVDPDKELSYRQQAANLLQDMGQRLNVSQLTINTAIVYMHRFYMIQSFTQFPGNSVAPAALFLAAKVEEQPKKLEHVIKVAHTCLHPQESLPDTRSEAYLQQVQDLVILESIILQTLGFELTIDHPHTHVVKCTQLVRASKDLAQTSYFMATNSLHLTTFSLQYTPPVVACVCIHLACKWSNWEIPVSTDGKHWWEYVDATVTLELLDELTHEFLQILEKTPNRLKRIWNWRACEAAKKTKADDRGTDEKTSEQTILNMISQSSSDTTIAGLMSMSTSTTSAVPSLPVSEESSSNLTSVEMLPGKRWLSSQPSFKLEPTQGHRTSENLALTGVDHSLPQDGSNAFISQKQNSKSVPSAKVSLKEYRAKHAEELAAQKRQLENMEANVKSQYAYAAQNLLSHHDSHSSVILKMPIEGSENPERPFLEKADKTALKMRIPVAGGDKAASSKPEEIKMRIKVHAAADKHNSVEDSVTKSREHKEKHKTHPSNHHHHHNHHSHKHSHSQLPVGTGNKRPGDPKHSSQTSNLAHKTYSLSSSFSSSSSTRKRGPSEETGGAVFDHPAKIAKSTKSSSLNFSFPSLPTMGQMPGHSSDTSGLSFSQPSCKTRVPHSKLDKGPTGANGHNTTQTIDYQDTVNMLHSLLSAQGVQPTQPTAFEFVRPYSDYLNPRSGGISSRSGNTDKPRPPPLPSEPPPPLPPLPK
Method: as §1, §2

[2] = molecular target: CDK12(aa686-1082)/cyclin K complex (Homo sapiens (Human), UniProt Q9NYV4); assay: In vitro enzymatic inhibitory activity test, CDK12; assay type: biochemical; details: Caliper mobility shift, 180 min at 27° C.
CDK12(aa686-1082)/cyclin K complex, sequence (Q9NYV4 686-1082, species assumed): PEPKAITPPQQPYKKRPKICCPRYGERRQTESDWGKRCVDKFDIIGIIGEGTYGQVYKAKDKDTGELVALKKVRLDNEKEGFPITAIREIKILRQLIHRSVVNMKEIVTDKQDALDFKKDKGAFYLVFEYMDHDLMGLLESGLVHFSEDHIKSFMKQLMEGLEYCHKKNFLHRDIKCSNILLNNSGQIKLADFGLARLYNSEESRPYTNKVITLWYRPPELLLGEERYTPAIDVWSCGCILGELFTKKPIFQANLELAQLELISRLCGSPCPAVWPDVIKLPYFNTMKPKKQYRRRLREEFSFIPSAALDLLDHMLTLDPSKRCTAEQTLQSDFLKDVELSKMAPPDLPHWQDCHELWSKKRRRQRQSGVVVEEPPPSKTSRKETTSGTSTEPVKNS
CDK12(aa686-1082)/cyclin K complex, sequence (O75909 whole entry partner, species assumed, the tested form may be a part): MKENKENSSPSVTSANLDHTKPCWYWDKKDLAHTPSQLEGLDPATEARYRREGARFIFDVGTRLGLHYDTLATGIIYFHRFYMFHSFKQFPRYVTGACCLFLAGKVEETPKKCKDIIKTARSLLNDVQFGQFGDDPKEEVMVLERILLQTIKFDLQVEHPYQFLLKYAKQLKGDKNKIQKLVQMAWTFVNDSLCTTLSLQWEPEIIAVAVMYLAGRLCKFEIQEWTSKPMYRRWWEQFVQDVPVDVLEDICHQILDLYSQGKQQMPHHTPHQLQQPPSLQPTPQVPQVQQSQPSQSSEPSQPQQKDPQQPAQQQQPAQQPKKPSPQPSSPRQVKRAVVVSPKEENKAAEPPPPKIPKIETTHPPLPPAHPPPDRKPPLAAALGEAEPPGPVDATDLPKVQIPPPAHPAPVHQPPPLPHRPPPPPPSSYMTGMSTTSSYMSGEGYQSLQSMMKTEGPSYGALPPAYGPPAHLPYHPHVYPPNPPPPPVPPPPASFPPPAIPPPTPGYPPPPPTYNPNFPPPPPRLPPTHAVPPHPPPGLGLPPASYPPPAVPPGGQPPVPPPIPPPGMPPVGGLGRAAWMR
Method: as §1, §2

HCC70 cells = assay: Cell bioactivity detection (CyQuant), HCC70; assay type: cell-based; details: human breast cancer cells HCC70, 72 hours
Method: (§3) Trypsinization was performed on A2780 and HCC70 cells. Cell suspensions were respectively transferred to 15 mL of centrifuge tubes and centrifuged at 800 rpm for 5 min. The supernatant was discarded. Resuspension in a fresh culture medium (RPMI 1640+10% FBS) was performed. After counting, the cells were inoculated at 2000/well in a 384-well plate (50 φL of 1640+10% FBS culture medium was added to the 2nd line and the 23rd line of the 384-well plate, and 50 μL of DPBS was added to surrounding wells). Incubation in an incubator (37° C., 5% CO2) was performed overnight.
(§4) The compound was added to the well plate the next day. The compound had the highest concentration of 10 μM and was diluted at the ratio of 1:4 to form 9 concentrations. The positive compound Paclitaxel had the highest concentration of 1 μM and was diluted at the ratio of 1:3 to form 9 concentrations. The DMSO content of each well was unified to 0.2%. A cell plate was centrifuged at 800 rpm for 30 seconds. Incubation for 72 hours in an incubator (37° C., 5% CO2) was performed. On the fourth day, a Cyquant reagent (3×) was prepared according to kit instructions. Each 384-well plate was prepared in the following proportions: DPBS: 11.568 mL, CyQuant® Direct nucleic acid stain: 72 μL, CyQuant® Direct background suppressor: 360 ILL. The plates were uniformly mixed and placed for standby application at room temperature. The cell plate was taken out and placed at room temperature to be balanced for 30 min. 25 μL of Cyquant reagent (3×) was dispensed to the cells in each well of the 384-well plates by using a Multi-drop dispenser. Incubation at 37° C. for 60 or more minutes was performed. The plates were read by Acumen (Acumen was configured to have a 488 nm excitation wavelength). IC50 results were analyzed by XLFIT5 of the IDBS company.

A2780 cells = assay: Cell bioactivity detection (CyQuant), A2780; assay type: cell-based, human; details: Homo sapiens, A2780, 72 h, ovarian carcinoma cells A2780, 72 hours
Method: as §3, §4

CDK7/cyclin H/MAT1 complex, sequence (P50613 whole entry, species assumed): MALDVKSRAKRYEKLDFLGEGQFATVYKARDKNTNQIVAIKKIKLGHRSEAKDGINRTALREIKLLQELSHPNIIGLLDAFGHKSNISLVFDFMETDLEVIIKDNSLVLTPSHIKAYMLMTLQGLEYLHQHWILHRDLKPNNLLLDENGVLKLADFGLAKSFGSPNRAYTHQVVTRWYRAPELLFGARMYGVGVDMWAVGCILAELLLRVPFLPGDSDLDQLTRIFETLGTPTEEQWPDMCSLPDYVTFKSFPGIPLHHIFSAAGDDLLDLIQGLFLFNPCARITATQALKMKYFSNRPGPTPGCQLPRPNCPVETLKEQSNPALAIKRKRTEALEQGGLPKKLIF
CDK7/cyclin H/MAT1 complex, sequence (P51946 whole entry partner, species assumed): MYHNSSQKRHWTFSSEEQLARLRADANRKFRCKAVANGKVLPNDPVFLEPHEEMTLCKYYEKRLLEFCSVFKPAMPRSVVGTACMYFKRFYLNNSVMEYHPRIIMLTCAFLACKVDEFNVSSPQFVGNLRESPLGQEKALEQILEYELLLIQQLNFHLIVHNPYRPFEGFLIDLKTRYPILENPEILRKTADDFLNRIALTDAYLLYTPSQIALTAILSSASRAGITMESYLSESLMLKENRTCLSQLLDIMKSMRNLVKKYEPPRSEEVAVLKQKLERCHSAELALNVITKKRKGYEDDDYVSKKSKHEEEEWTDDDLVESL
CDK7/cyclin H/MAT1 complex, sequence (P51948 whole entry partner, species assumed): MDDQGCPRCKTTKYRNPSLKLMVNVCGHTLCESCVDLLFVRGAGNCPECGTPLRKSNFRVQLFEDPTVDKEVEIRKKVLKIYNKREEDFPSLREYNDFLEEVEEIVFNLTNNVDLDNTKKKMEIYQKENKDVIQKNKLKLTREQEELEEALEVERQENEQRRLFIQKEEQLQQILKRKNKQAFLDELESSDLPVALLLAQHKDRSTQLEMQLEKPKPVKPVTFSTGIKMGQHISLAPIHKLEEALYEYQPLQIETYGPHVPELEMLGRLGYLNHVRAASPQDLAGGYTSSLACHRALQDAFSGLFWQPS

SMILES	IC50 [1] [nM]	IC50 (CDK2/cyclin E1 complex) [µM]	IC50 (CDK9/CyclinT1) [µM]	IC50 [2] [nM]	IC50 (HCC70 cells; Homo sapiens, HCC70, 72 h) [nM]	IC50 (A2780 cells) [nM]	IC50 (HCC70 cells) [nM]
FC(F)(F)c1cnc(N[C@H]2CCCNC2)nc1-c1c[nH]c2nc(C3=CCCCO3)ccc12 [Compound 109, (S)-4-(6-(3,4-dihydropyran-6-yl)-1H-pyrrol[2,3-b]pyridin-3-yl)-N-(piperidin-3-yl)-5-(trifluoromethyl)pyrimidine-2-amine]	5.62	2.15	2.87	1000	3.98	5.61	–
CC[C@H]1COCCN1c1ccc2c(-c3nc(N[C@H]4CCCNC4)ncc3C(F)(F)F)c[nH]c2n1 [Compound 104, 4-(6-((S)-3-ethylmorpholinyl)-1H-pyrrol[2,3-b]pyridin-3-yl)-N—((S)-piperidin-3-yl)-5-(trifluoromethyl)pyrimidine-2-amine formate]	5.85	1.55	2.75	773	4.97	5.37	–
FC(F)(F)c1cnc(N[C@H]2CCCNC2)nc1-c1c[nH]c2nc(N3CC4(COC4)C3)ccc12 [Compound 14, (S)-4-(6-(2-oxa-6-azaspiro[3.3]heptan-6-yl)-1H-pyrrolo[2,3-b]pyridin-3-yl)-N-(piperidin-3-yl)-5-(trifluoromethyl)pyrimidine-2-amine]	7.11	3.29	1.67	555	24	11	–
C[C@H]1CC[C@H](Nc2ncc(C(F)(F)F)c(-c3c[nH]c4nc(N5CCOC[C@@H]5C)ccc34)n2)CN1 [Compound 69, 4-(6-((S)-3-methylmorpholine)-1H-pyrrol[2,3-b]pyridin-3-yl)-N-((3S,6S)-6-methylpiperidin-3-yl)-5-(trifluoromethyl)pyrimidine-2-amine]	28.4	47.1	> 50	49100	–	–	642
FC(F)(F)c1cnc(N[C@H]2CCCNC2)nc1-c1c[nH]c2nc(N3CCCOCC3)ccc12 [Compound 22, (S)-4-(6-(1,4-oxazepan-4-yl)-1H-pyrrolo[2,3-b]pyridin-3-yl)-N-(piperidin-3-yl)-5-(trifluoromethyl)pyrimidine-2-amine]	7.05	3.05	2.86	783	10.7	4.7	–
FC(F)(F)c1cnc(N[C@H]2CCCNC2)nc1-c1c[nH]c2nc(N3CC4(CCOC4)C3)ccc12 [Compound 11, (S)-4-(6-(6-oxa-2-azaspiro[3.4]octan-2-yl)-1H-pyrrolo[2,3-b]pyridin-3-yl)-N-(piperidin-3-yl)-5-(trifluoromethyl)pyrimidine-2-amine]	27.8	6.45	4.23	1950	48	41.2	–
FC(F)(F)c1cnc(N[C@H]2CCCNC2)nc1-c1c[nH]c2nc(N3CCN(C4COC4)CC3)ccc12 [Compound 24, (S)-4-(6-(4-(oxetan-3-yl)piperazin-1-yl)-1H-pyrrolo[2,3-b]pyridin-3-yl)-N-(piperidin-3-yl)-5-(trifluoromethyl)pyrimidine-2-amine]	17.4	8.5	5.25	1970	72	110	–
FC(F)(F)c1cnc(N[C@H]2CCCNC2)nc1-c1c[nH]c2nc(N3CCCC4(CCOC4)C3)ccc12 (stereo partly drawn) [Compound 7, 4-(6-(2-oxa-7-azaspiro[4.5]decan-7-yl)-1H-pyrrolo[2,3-b]pyridin-3-yl)-N—((S)-piperidin-3-yl)-5-(trifluoromethyl)pyrimidine-2-amine]	24.3	4.5	3.25	2060	28	21.9	–
FC(F)(F)c1cnc(N[C@H]2CCCNC2)nc1-c1c[nH]c2nc(N3C4COCC3C4)ccc12 [Compound 103, 4-(6-(3-oxo-6-azabicyclo[3.1.1]heptan-6-yl)-1H-pyrrol[2,3-b]pyridin-3-yl)-N—((S)-piperidin-3-yl)-5-(trifluoromethyl)pyrimidine-2-amine formate]	7.26	2.83	3.68	1390	22.3	18.2	–
FC(F)(F)c1cnc(N[C@H]2CCCNC2)nc1-c1c[nH]c2nc(N3CCC4(COC4)C3)ccc12 [Compound 8, (S)-4-(6-(2-oxa-6-azaspiro[3.4]octan-6-yl)-1H-pyrrolo[2,3-b]pyridin-3-yl)-N-(piperidin-3-yl)-5-(trifluoromethyl)pyrimidine-2-amine]	40.3	17.5	15.9	9320	16	19.1	–
FC(F)(F)c1cnc(N[C@@H]2[C@@H]3CC[C@H]2NC3)nc1-c1c[nH]c2nc(N3CCOCC3)ccc12 [Compound 43, (1R,4R,7R)—N-(4-(6-morpholinyl-1H-pyrrol[2,3-b]pyridin-3-yl)-5-(trifluoromethyl)pyrimidin-2-yl)-2-azabicyclo[2.2.1]heptan-7-amine formate]	82.9	> 10	> 10	> 10000	6070	–	–
FC(F)(F)c1cnc(N[C@H]2CCCNC2)nc1-c1c[nH]c2nc(C3CCCCO3)ccc12 (stereo partly drawn) [Compound 113]	4.76	–	–	–	–	–	–
FC(F)(F)c1cnc(N[C@@H]2CCCNC2)nc1-c1c[nH]c2nc(C3CCCCO3)ccc12 (stereo partly drawn) [Compound 112]	5.82	–	–	–	–	–	–
